Assay [1] deals with T1, GLS1 (purified recombinant human GAC) (Homo sapiens, UniProt O94925).
T1 sequence (O94925 55-598 isoform O94925-3 limits assumed): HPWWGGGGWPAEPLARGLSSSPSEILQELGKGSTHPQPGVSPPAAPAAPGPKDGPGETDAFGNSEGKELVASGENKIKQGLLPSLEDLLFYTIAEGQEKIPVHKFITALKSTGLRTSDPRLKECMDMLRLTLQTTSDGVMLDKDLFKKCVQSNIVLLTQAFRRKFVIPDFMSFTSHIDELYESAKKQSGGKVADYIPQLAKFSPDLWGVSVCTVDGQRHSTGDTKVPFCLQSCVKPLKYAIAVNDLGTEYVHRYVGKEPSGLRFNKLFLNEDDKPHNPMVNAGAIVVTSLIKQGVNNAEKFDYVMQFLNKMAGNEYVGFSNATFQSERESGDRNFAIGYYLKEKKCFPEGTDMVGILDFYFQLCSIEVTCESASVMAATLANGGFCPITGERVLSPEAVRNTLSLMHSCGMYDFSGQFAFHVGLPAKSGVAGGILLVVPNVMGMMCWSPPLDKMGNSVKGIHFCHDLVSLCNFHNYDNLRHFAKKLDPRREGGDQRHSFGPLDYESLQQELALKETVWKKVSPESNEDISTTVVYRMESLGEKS
Briefly: GLS1 enzymatic activity assay (dual-coupled, Amplex UltraRed/resorufin). It counts as biochemical. Put shortly: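 GAC activity measured by coupling glutamate to glutamate oxidase and HRP, generating resorufin from Amplex UltraRed. Enzyme (2 nM) preincubated with 50 mM potassium phosphate 10 min at room temperature, then inhibitor 10 min; 1 mM glutamine substrate, 1% DMSO. Fluorescence 530/590 nm, kinetic or 20-min endpoint; IC50 from four-parameter logistic fit.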

Another assay relates to A549 cells. Briefly: A549 proliferation (viability) assay, Cell Titer Fluor, 72 hours. It counts as cell-based. The note with it: Homo sapiens. Put shortly:
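Seed A549 at 1000 cells/well and culture 24 h. Add compound (final DMSO 0.5%) and incubate 72 h at 37 °C. Add Cell Titer Fluor, mix 15 min, incubate 30 min, read fluorescence and fit EC50 by four-parameter logistic.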

This is an account of results in patent publication US20160002204A1 (Board of Regents, The University of Texas System, priority 2014, published 2016).

Structures are written as SMILES. A value given as a limit tells only on which side of the number the result lay.

`NC(=O)CNC(=O)c1cn(CCCCn2ccc(NC(=O)Cc3cccc(OC(F)(F)F)c3)cc2=O)nn1` [Example 136, 2-({1-[4-(2-oxo-4-{2-[3-(trifluoromethoxy)phenyl]acetamido}-1,2-dihydropyridin-1-yl)butyl]-1H-1,2,3-triazol-4-yl}formamido)acetamide]: the IC50 in assay [1] lay in the range of 0.1 to 0.5 µM. In the assay with A549 cells, the 50% effective concentration (EC50) was above 5 µM.

On to `CC(C)(C)OC(=O)Nc1ccn(CCCCn2cc(C(=O)NCc3cccc(C(F)(F)F)c3)nn2)c(=O)c1` [Example 139, tert-butyl N-(2-oxo-1-{4-[4-({[3-(trifluoromethyl)phenyl]methyl}carbamoyl)-1H-1,2,3-triazol-1-yl]butyl}-1,2-dihydropyridin-4-yl)carbamate], for which the IC50 in assay [1] is below 0.1 µM. The same molecule yielded an EC50 with A549 cells of 0.1 to 0.5 µM.

With `O=C(CC1CCCCC1)Nc1ccn(CCCCn2cc(C(=O)NCc3cccc(C(F)(F)F)c3)nn2)c(=O)c1` [Example 141, 1-{4-[4-(2-cyclohexylacetamido)-2-oxo-1,2-dihydropyridin-1-yl]butyl}-N-{[3-(trifluoromethyl)phenyl]methyl}-1H-1,2,3-triazole-4-carboxamide], the IC50 in assay [1] is below 0.1 µM. The molecule also registered an EC50 in the assay on A549 cells below 0.1 µM.

`Cc1ccc(CNC(=O)c2cn(CCCCn3ccc(NC(=O)OC(C)(C)C)cc3=O)nn2)cn1` [Example 143, tert-butyl N-{1-[4-(4-{[(6-methylpyridin-3-yl)methyl]carbamoyl}-1H-1,2,3-triazol-1-yl)butyl]-2-oxo-1,2-dihydropyridin-4-yl}carbamate]: the IC50 in assay [1] was in the range of 0.1 to 0.5 µM. Further, the EC50 with A549 cells lay within 0.5 to 5 µM.

Turning to `O=C(Cc1ccccc1)Nc1ccn(CC(F)CCn2cc(C(=O)NCc3cccc(OC(F)(F)F)c3)nn2)c(=O)c1` (stereo not drawn) [Example 144, 1-{3-fluoro-4-[2-oxo-4-(2-phenylacetamido)-1,2-dihydropyridin-1-yl]butyl}-N-{[3-(trifluoromethoxy)phenyl]methyl}-1H-1,2,3-triazole-4-carboxamide], the IC50 in assay [1] is below 0.1 µM. In the assay with A549 cells, this molecule showed an EC50 below 0.1 µM.

With `Cc1ccc(CNC(=O)c2cn(CCCCn3ccc(NC(=O)CC4CCCCC4)cc3=O)nn2)cn1` [Example 145, 1-{4-[4-(2-cyclohexylacetamido)-2-oxo-1,2-dihydropyridin-1-yl]butyl}-N-[(6-methylpyridin-3-yl)methyl]-1H-1,2,3-triazole-4-carboxamide], the IC50 in assay [1] is below 0.1 µM. In the assay on A549 cells, this molecule gave an EC50 of 0.1 to 0.5 µM.

Take `O=C(CC1CCCCC1)Nc1ccn(CCCCn2cc(C(=O)NCc3ncccc3F)nn2)c(=O)c1` [Example 146, 1-{4-[4-(2-cyclohexylacetamido)-2-oxo-1,2-dihydropyridin-1-yl]butyl}-N-[(3-fluoropyridin-2-yl)methyl]-1H-1,2,3-triazole-4-carboxamide]: the IC50 in assay [1] is below 0.1 µM. Moreover, the EC50 in the assay on A549 cells lay in the range of 0.1 to 0.5 µM.

On to `O=C(Cc1ccccc1)Nc1ccn(CCCCn2cc(C(=O)NCc3ncccc3F)nn2)c(=O)c1` [Example 147, N-[(3-fluoropyridin-2-yl)methyl]-1-{4-[2-oxo-4-(2-phenylacetamido)-1,2-dihydropyridin-1-yl]butyl}-1H-1,2,3-triazole-4-carboxamide], for which, in assay [1], the IC50 was 0.1 to 0.5 µM. The EC50 with A549 cells is above 5 µM.

Turning to `Cc1ccc(CNC(=O)c2cn(CCC(F)Cn3ccc(NC(=O)Cc4ccccc4)cc3=O)nn2)cn1` (stereo not drawn) [Example 148, 1-{3-fluoro-4-[2-oxo-4-(2-phenylacetamido)-1,2-dihydropyridin-1-yl]butyl}-N-[(6-methylpyridin-3-yl)methyl]-1H-1,2,3-triazole-4-carboxamide], in assay [1], the IC50 is below 0.1 µM. Moreover, the EC50 in the assay on A549 cells was 0.5 to 5 µM.

Consider `O=C(Cc1ccccc1)Nc1ccn(CC(F)CCn2cc(C(=O)NCc3ncccc3F)nn2)c(=O)c1` (stereo not drawn) [Example 149, 1-{3-fluoro-4-[2-oxo-4-(2-phenylacetamido)-1,2-dihydropyridin-1-yl]butyl}-N-[(3-fluoropyridin-2-yl)methyl]-1H-1,2,3-triazole-4-carboxamide], for which the half-maximal inhibitory concentration (IC50) in assay [1] was 0.1 to 0.5 µM. For the same molecule, the EC50 in the assay on A549 cells fell in the range of 0.5 to 5 µM.

As to `Cc1ccc(CNC(=O)c2cn(CC(F)CCn3ccc(NC(=O)Cc4ccccc4)cc3=O)nn2)cn1` (stereo not drawn) [Example 150, 1-{2-fluoro-4-[2-oxo-4-(2-phenylacetamido)-1,2-dihydropyridin-1-yl]butyl}-N-[(6-methylpyridin-3-yl)methyl]-1H-1,2,3-triazole-4-carboxamide], in assay [1], the IC50 fell in the range of 0.1 to 0.5 µM. Also, in the assay on A549 cells, the EC50 was above 5 µM.

With `O=C(Cc1ccccc1)Nc1ccn(CCC(F)Cn2cc(C(=O)NCc3ncccc3F)nn2)c(=O)c1` (stereo not drawn) [Example 151, 1-{2-fluoro-4-[2-oxo-4-(2-phenylacetamido)-1,2-dihydropyridin-1-yl]butyl}-N-[(3-fluoropyridin-2-yl)methyl]-1H-1,2,3-triazole-4-carboxamide], in assay [1], the IC50 was 0.1 to 0.5 µM. The molecule further registered an EC50 with A549 cells of 0.5 to 5 µM.

Turning to `O=C(NCc1cccc(C(F)(F)F)c1)c1cn(CCCCn2ccc(NC(=O)C3CCCCC3)cc2=O)nn1` [Example 152, 1-[4-(4-cyclohexaneamido-2-oxo-1,2-dihydropyridin-1-yl)butyl]-N-{[3-(trifluoromethyl)phenyl]methyl}-1H-1,2,3-triazole-4-carboxamide], the IC50 in assay [1] was below 0.1 µM. In addition, the half-maximal effective concentration (EC50) in the assay on A549 cells was in the range of 0.1 to 0.5 µM.

On to `O=C(CC1CCCC1)Nc1ccn(CCCCn2cc(C(=O)NCc3cccc(C(F)(F)F)c3)nn2)c(=O)c1` [Example 153, 1-{4-[4-(2-cyclopentylacetamido)-2-oxo-1,2-dihydropyridin-1-yl]butyl}-N-{[3-(trifluoromethyl)phenyl]methyl}-1H-1,2,3-triazole-4-carboxamide], for which, in assay [1], the IC50 is below 0.1 µM. The molecule further yielded an EC50 in the assay on A549 cells below 0.1 µM.

Take `O=C(CC1CC1)Nc1ccn(CCCCn2cc(C(=O)NCc3cccc(C(F)(F)F)c3)nn2)c(=O)c1` [Example 154, 1-{4-[4-(2-cyclopropylacetamido)-2-oxo-1,2-dihydropyridin-1-yl]butyl}-N-{[3-(trifluoromethyl)phenyl]methyl}-1H-1,2,3-triazole-4-carboxamide]: the IC50 in assay [1] was below 0.1 µM. The molecule also had an EC50 with A549 cells of 0.5 to 5 µM.

As to `O=C(CN1CCCC1=O)Nc1ccn(CCCCn2cc(C(=O)NCc3cccc(C(F)(F)F)c3)nn2)c(=O)c1` [Example 155, 1-(4-{2-oxo-4-[2-(2-oxopyrrolidin-1-yl)acetamido]-1,2-dihydropyridin-1-yl}butyl)-N-{[3-(trifluoromethyl)phenyl]methyl}-1H-1,2,3-triazole-4-carboxamide], the IC50 in assay [1] lay within 0.1 to 0.5 µM. This molecule registered an EC50 with A549 cells above 5 µM.

Take `CCN1CCC(CC(=O)Nc2ccn(CCCCn3cc(C(=O)NCc4cccc(C(F)(F)F)c4)nn3)c(=O)c2)CC1` [Example 156, 1-(4-{4-[2-(1-ethylpiperidin-4-yl)acetamido]-2-oxo-1,2-dihydropyridin-1-yl}butyl)-N-{[3-(trifluoromethyl)phenyl]methyl}-1H-1,2,3-triazole-4-carboxamide]: the IC50 in assay [1] was in the range of 0.1 to 0.5 µM. In addition, the EC50 in the assay on A549 cells is 0.5 to 5 µM.

On to `O=C(Cn1ccccc1=O)Nc1ccn(CCCCn2cc(C(=O)NCc3cccc(C(F)(F)F)c3)nn2)c(=O)c1` [Example 157, 1-(4-{2-oxo-4-[2-(2-oxo-1,2-dihydropyridin-1-yl)acetamido]-1,2-dihydropyridin-1-yl}butyl)-N-{[3-(trifluoromethyl)phenyl]methyl}-1H-1,2,3-triazole-4-carboxamide], for which the IC50 in assay [1] fell in the range of 0.5 to 5 µM. The molecule further came in with an EC50 in the assay with A549 cells above 5 µM.

In general, IC50 refers to the concentration that gives 50% inhibition. Usually EC50 stands for the concentration needed to bring the measured effect to its halfway point.
